# Assay results reported in US6821993B1, “Triazepine derivatives as neurotrophic agents” (Ortho-McNeil Pharmaceutical, Inc., priority 2001, dated 2004).
# Columns and labels:
# [1] = tested on: M17 human neuroblastoma cells; test: Neurite outgrowth assay in human M17 neuroblastoma cells; format: cell-based; conditions: MAP-2 immunofluorescence
# Protocol: M17 human neuroblastoma cells were cultured in 1:1 ratio of EMEM and Ham's F12 with 1×NEAA and 10% FBS. The culture media contained 1×PSN antibiotic and was exchanged every other day, and the cells were passed in log phase near confluence.
# (§1) Cultures were incubated with normal horse serum (1:50; Vector Labs) or about 20 min, rinsed and then incubated with primary antibody, microtubule associated-protein 2 (anti-mouse MAP-2; 1:1000; Chemicon) for about 2 h at about RT. Following primary antibody, cultures were rinsed and incubated with fluorescein anti-mouse IgG (rat absorbed; 1:50; Vector Labs) for about 1 h. After fluorescein incubation, the cultures were rinsed and read in PBS on a fluorescent plate reader (excitation: 485 nm; emission: 530 nm). A compound was regarded as active if the neurite outgrowth response is greater than the mean DMSO-treated control response on the same plate. The response to test compound was reported as percent of DMSO-treated control. The signal-to-noise separation is consistent: the fluorescence from DMSO control wells is at least twofold greater than blank wells.
# [2] = tested on: Dorsal Root Ganglion (DRG); test: Dorsal Root Ganglion (DRG) culture neurite outgrowth; format: cell-based, rat; conditions: neurite outgrowth from DRG of newborn or 1-day-old CD rats; test compound 50-250 nM; examined on days 1-5
# Protocol: DRG were dissected from newborn or 1-day-old CD rats and placed into PBS on ice. After rinsing twice with sterile plating medium, DRG were transferred to empty wells of a 6-well plate coated with polyornithine/laminin (Becton Dickinson Labware) using #7 curved forceps. Three ml/well of plating medium were then added very gently, so as not to disturb the DRG plating medium is Leibovitz's L-15 medium (Gibco), plus 0.6% glucose, 33 mM KCl, 10% FCS, 10 mM Hepes and penicillin/streptomycin/glutamine. After overnight incubation at about 37° C. in 5% CO2, this medium was replaced with 3 mL/well of assay medium [Leibovitz's L-15 medium plus 0.6% glucose, 1% FCS, 1% N-2 supplement (Gibco), 10 μM ara-C, 10 mM Hepes, and penicillin/streptomycin/glutamine] containing either vehicle (DMSO, 1/200,000), positive control (2-4 ng/mL NGF) or test compound (50-250 nM). All media were prepared fresh daily. DRG were microscopically examined for neurite outgrowth on days 1-5.
# [3] = tested on: Primary Rat Hippocampal Cells; test: Neurite outgrowth assay in primary rat hippocampal cells; format: cell-based; conditions: MAP-2 immunofluorescence, embryonic day 18 rat hippocampal cells, 7 days in culture
# Protocol: Hippocampal cells were dissected from the brains of embryonic day 18 rat pups and dissociated with trypsin (1 mg/mL) and trituration. Cells were seeded at 30,000 cells/well in 96-well plates filled with 100 μL MEM and 10% FBS. At 7 days in culture, cells were fixed with 4% paraformaldehyde and immuno-fluorescence is performed.
# as §1
SMILES,M17 Cell Response [1],DRG [2],Rat Hippocampal Cell Response [3]
"CCC(C)(C)C1=NNC(=O)[C@@H]2CCCN2C1=O [(1), 1H-pyrrolo[2,1-d][1,2,5]triazepine-1,5(2H)-dione, 4-(1,1-dimethylpropyl)-7,8,9,9a-tetrahydro-, (9aS)-]",115% of DMSO-treated control,+ (An experiment was considered positive (+) if the instant compound induced neurites of ≧1 diameter of the DRG),123% of DMSO-treated control
"CCC(C)(C)C1=NN(CCCc2ccccc2)C(=O)[C@@H]2CCCN2C1=O [(2), 1H-pyrrolo[2,1-d][1,2,5]triazepine-1,5(2H)-dione, 4-(1,1-dimethylpropyl)-7,8,9,9a-tetrahydro-2-(3-phenylpropyl)-, (9aS)-]",<100% of DMSO-treated control,–,<100% of DMSO-treated control
"CCC(C)(C)C1=NN(CCCc2cccnc2)C(=O)[C@@H]2CCCN2C1=O [(3), 1H-pyrrolo[2,1-d][1,2,5]triazepine-1.5(2H)-dione, 4-(1,1-dimethylpropyl)-7,8,9,9a-tetrahydro-2-[3-(3-pyridinyl)propyl]-, (9aS)-]",<100% of DMSO-treated control,–,145% of DMSO-treated control
CCC(C)(C)C1=NNC(=O)C2CCCCN2C1=O (stereo not shown) [(4)],<100% of DMSO-treated control,–,140% of DMSO-treated control
"O=C1NN=C(c2cccs2)C(=O)N2CSC[C@@H]12 [(5), 1H,7H-thiazolo[4,3-d][1,2,5]triazepine-1,5(2H)-dione, 9,9a-dihydro-4-(2-thienyl)-, (9aR)-]",<100% of DMSO-treated control,–,105% of DMSO-treated control
"O=C1[C@@H]2CSCN2C(=O)C(c2cccs2)=NN1CCC(c1ccccc1)c1ccccc1 [(6), 1H,7H-thiazolo[4,3-d][1,2,5]triazepine-1,5(2H)-dione, 2-(3,3-diphenylpropyl)-9,9a-dihydro-4-(2-thienyl)-, (9aR)-]",<100% of DMSO-treated control,–,105% of DMSO-treated control
